Results published in US12091389B2, “Pyrazolylbenzene-1,3-diols for diseases associated with g protein-coupled receptor 18 and in combination with transient receptor potential vanilloid 1” (Temple University—Of The Commonwealth System of Higher …, priority 2020, dated 2024).

Biological target: TRPV1 (Homo sapiens, UniProt Q8NER1)
Assay: Calcium imaging (Fura-2 AM) in TRPV1-expressing HEK293 cells
Type: cell-based
Settings: compound alone, 5 μM

Sequence of TRPV1 (Q8NER1 whole entry): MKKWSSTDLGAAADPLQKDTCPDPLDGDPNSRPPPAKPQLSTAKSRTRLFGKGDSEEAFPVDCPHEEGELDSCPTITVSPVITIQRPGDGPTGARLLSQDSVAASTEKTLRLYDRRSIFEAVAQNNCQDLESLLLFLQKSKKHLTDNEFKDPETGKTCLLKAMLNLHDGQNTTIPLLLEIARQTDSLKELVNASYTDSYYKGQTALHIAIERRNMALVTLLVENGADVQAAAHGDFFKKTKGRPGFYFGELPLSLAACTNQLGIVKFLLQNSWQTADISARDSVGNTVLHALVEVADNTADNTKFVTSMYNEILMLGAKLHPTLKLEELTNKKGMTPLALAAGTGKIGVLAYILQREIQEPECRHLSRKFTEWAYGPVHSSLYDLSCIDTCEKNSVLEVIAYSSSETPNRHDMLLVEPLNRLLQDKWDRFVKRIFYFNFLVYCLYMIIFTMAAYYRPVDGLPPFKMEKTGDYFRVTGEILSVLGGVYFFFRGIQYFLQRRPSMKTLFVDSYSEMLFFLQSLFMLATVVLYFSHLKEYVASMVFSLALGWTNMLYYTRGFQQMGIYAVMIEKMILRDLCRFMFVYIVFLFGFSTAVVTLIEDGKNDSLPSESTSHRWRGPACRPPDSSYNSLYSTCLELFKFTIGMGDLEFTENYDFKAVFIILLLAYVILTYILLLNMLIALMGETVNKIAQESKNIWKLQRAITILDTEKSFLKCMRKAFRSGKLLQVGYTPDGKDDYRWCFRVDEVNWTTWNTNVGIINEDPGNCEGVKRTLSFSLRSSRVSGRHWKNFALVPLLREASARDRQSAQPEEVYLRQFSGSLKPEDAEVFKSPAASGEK

## CCCCC/C=C\C/C=C\C/C=C\C/C=C\CCCC(=O)NCCO [Anandamide]
  Effect on intracellular calcium (Ca^2+) in TPRV1-expressing cells: increases intracellular calcium
